# Biological target: T1, recombinant human NK3 receptor (Homo sapiens, UniProt P29371)
# T1 construct: expressed in transfected cells; host or cells: HEK293 cells (transient expression), membranes
# T1 sequence (P29371 1-465): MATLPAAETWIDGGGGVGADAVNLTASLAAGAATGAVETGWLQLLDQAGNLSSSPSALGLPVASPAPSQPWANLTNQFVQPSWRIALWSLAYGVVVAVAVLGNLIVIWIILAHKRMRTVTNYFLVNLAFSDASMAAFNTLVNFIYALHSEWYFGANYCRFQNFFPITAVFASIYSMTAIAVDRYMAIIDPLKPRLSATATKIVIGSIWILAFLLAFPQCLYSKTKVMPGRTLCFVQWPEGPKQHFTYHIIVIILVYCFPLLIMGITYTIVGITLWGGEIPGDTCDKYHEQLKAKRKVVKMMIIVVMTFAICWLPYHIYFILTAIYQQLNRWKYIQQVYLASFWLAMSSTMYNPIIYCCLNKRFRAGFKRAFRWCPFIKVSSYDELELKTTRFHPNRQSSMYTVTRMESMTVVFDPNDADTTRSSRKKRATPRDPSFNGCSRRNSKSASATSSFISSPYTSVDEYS
# Experiment: [3H]SR142801 competition binding assay
# Settings: hNK3 receptor binding, [3H]SR142801, membranes from HEK293 cells transiently expressing recombinant human NK3 receptor
# Experimental: [^3H]SR142801 competition binding assay
# hNK3 receptor binding experiment were performed using [^3H]SR142801 (Catalog No. TRK1035, specific activity: 74.0 Ci/mmol, Amersham, GE Healthcare UK limited, Buckinghamshire, UK) and membrane isolated from HEK293 cells transiently expressing recombinant human NK3 receptor. After thawing, the membrane homogenates were centrifuged at 48,000×g for 10 min at 4° C., the pellets were resuspended in the 50 mM Tris-HCl, 4 mM MnCl2, 1 μM phosphoramidon, 0.1% BSA binding buffer at pH 7.4 to a final assay concentration of 5 μg protein/well. […] At the end of the incubation, membranes were filtered onto unitfilter (96-well white microplate with bonded GF/C filter preincubated 1 h in 0.3% PEI+0.3% BSA, Packard BioScience, Meriden, Conn.) with a Filtermate 196 harvester (Packard BioScience) and washed 4 times with ice-cold 50 mM Tris-HCl, pH 7.4 buffer. Nonspecific binding was measured in the presence of 10 μM SB222200 for both radioligands. The radioactivity on the filter was counted (5 min) on a Packard Top-count microplate scintillation counter with quenching correction after addition of 45 μl of microscint 40 (Canberra Packard S. A., Zürich, Switzerland) and shaking for 1 h. Inhibition curves were fitted according to the Hill equation: y=100/(1+(x/IC50)^nH), where nH=slope factor using Excel-fit 4 software (Microsoft). IC50 values were derived from the inhibition curve and the affinity constant (Ki) values were calculated using the Cheng-Prussoff equation Ki=IC50/(1+[L]/KD) where [L] is the concentration of radioligand and KD is its dissociation constant at the receptor, derived from the saturation isotherm. All experiments were performed in duplicate and the mean±standard error (SEM) of the individual Ki values was calculated.
row,SMILES,Ki
1,"CN(Cc1ccc(C(F)(F)F)c(F)c1)[C@H]1CN(C(=O)c2ccc(C#N)cc2)C[C@@H]1c1ccc(Cl)c(Cl)c1 (racemic) [Example 6, 4-{(3SR,4RS)-3-(3,4-Dichloro-phenyl)-4-[(3-fluoro-4-trifluoromethyl-benzyl)-methyl-amino]-pyrrolidine-1-carbonyl}-benzonitrile]",20.9 nM
2,"CN(Cc1ccc(C(F)(F)F)c(F)c1)[C@H]1CN(C(=O)c2cccc(C#N)c2)C[C@@H]1c1ccc(Cl)c(Cl)c1 (racemic) [Example 9, 3-{(3SR,4RS)-3-(3,4-Dichloro-phenyl)-4-[(3-fluoro-4-trifluoromethyl-benzyl)-methyl-amino]-pyrrolidine-1-carbonyl}-benzonitrile]",47.4 nM
3,"CN(Cc1ccc(C(F)(F)F)c(F)c1)[C@H]1CN(C(=O)c2ccc3c(c2)OCO3)C[C@@H]1c1ccc(Cl)c(Cl)c1 (racemic) [Example 17, Benzo[1,3]dioxol-5-yl-{(3SR,4RS)-3-(3,4-dichloro-phenyl)-4-[(3-fluoro-4-trifluoromethyl-benzyl)-methyl-amino]-pyrrolidin-1-yl}-methanone]",38.3 nM
4,"CN(Cc1ccc(C#N)c(F)c1)[C@H]1CN(C(=O)c2ccc(C#N)cc2)C[C@@H]1c1ccc(Cl)c(Cl)c1 (racemic) [Example 18, 4-({[(3RS,4SR)-1-(4-Cyano-benzoyl)-4-(3,4-dichloro-phenyl)-pyrrolidin-3-yl]-methyl-amino}-methyl)-2-fluoro-benzonitrile]",42 nM
5,"CN(Cc1ccc(C(F)(F)F)c(F)c1)[C@H]1CN(C(=O)c2ccc(C#N)cc2F)C[C@@H]1c1ccc(Cl)c(Cl)c1 (racemic) [Example 19, 4-{(3SR,4RS)-3-(3,4-Dichloro-phenyl)-4-[(3-fluoro-4-trifluoromethyl-benzyl)-methyl-amino]-pyrrolidine-1-carbonyl}-3-fluoro-benzonitrile]",12.9 nM
6,"CN(Cc1ccc(C(F)(F)F)c(F)c1)[C@H]1CN(C(=O)c2cc(S(C)(=O)=O)ccc2F)C[C@@H]1c1ccc(Cl)c(Cl)c1 (racemic) [Example 20, {(3SR,4RS)-3-(3,4-Dichloro-phenyl)-4-[(3-fluoro-4-trifluoromethyl-benzyl)-methyl-amino]-pyrrolidin-1-yl}-(2-fluoro-5-methanesulfonyl-phenyl)-methanone]",41.7 nM
7,"CN(Cc1ccc(C(F)(F)F)c(F)c1)[C@H]1CN(C(=O)c2ccc(S(C)(=O)=O)cc2)C[C@@H]1c1ccc(Cl)c(Cl)c1 (racemic) [Example 22, {(3SR,4RS)-3-(3,4-Dichloro-phenyl)-4-[(3-fluoro-4-trifluoromethyl-benzyl)-methyl-amino]-pyrrolidin-1-yl}-(4-methanesulfonyl-phenyl)-methanone]",30.2 nM
8,"Cc1cc(C(=O)N2C[C@H](c3ccc(Cl)c(Cl)c3)[C@@H](N(C)Cc3ccc(C(F)(F)F)c(F)c3)C2)ccc1C#N (racemic) [Example 23, 4-{(3SR,4RS)-3-(3,4-Dichloro-phenyl)-4-[(3-fluoro-4-trifluoromethyl-benzyl)-methyl-amino]-pyrrolidine-1-carbonyl}-2-methyl-benzonitrile]",6.6 nM
9,"CC(=O)c1ccc(C(=O)N2C[C@H](c3ccc(Cl)c(Cl)c3)[C@@H](N(C)Cc3ccc(C(F)(F)F)c(F)c3)C2)cc1 (racemic) [Example 24, 1-(4-{(3SR,4RS)-3-(3,4-Dichloro-phenyl)-4-[(3-fluoro-4-trifluoromethyl-benzyl)-methyl-amino]-pyrrolidine-1-carbonyl}-phenyl)-ethanone]",6.8 nM
10,"Cc1ccc(C(=O)N2C[C@H](c3ccc(Cl)c(Cl)c3)[C@@H](N(C)Cc3ccc(C(F)(F)F)c(F)c3)C2)cn1 (racemic) [Example 25, {(3SR,4RS)-3-(3,4-Dichloro-phenyl)-4-[(3-fluoro-4-trifluoromethyl-benzyl)-methyl-amino]-pyrrolidin-1-yl}-(6-methyl-pyridin-3-yl)-methanone]",15.2 nM
11,"CN(Cc1ccc(C(F)(F)F)c(F)c1)[C@H]1CN(C(=O)c2ccc(C#N)nc2)C[C@@H]1c1ccc(Cl)c(Cl)c1 (racemic) [Example 26, 5-{(3SR,4RS)-3-(3,4-Dichloro-phenyl)-4-[(3-fluoro-4-trifluoromethyl-benzyl)-methyl-amino]-pyrrolidine-1-carbonyl}-pyridine-2-carbonitrile]",14.8 nM
12,"CN(Cc1ccc(C(F)(F)F)c(F)c1)[C@H]1CN(C(=O)c2ccc(N3CCOCC3)nc2)C[C@@H]1c1ccc(Cl)c(Cl)c1 (racemic) [Example 27, {(3SR,4RS)-3-(3,4-Dichloro-phenyl)-4-[(3-fluoro-4-trifluoromethyl-benzyl)-methyl-amino]-pyrrolidin-1-yl}-(6-morpholin-4-yl-pyridin-3-yl)-methanone]",5.7 nM
13,"CN(Cc1ccc(C(F)(F)F)c(F)c1)[C@H]1CN(C(=O)c2ccc(F)nc2)C[C@@H]1c1ccc(Cl)c(Cl)c1 (racemic) [Example 28, {(3SR,4RS)-3-(3,4-Dichloro-phenyl)-4-[(3-fluoro-4-trifluoromethyl-benzyl)-methyl-amino]-pyrrolidin-1-yl}-(6-fluoro-pyridin-3-yl)-methanone]",35.6 nM
14,"COc1ccc(C(=O)N2C[C@H](c3ccc(Cl)c(Cl)c3)[C@@H](N(C)Cc3ccc(C(F)(F)F)c(F)c3)C2)cn1 (racemic) [Example 29, {(3SR,4RS)-3-(3,4-Dichloro-phenyl)-4-[(3-fluoro-4-trifluoromethyl-benzyl)-methyl-amino]-pyrrolidin-1-yl}-(6-methoxy-pyridin-3-yl)-methanone]",8.4 nM
15,"CN(Cc1ccc(C(F)(F)F)c(F)c1)[C@H]1CN(C(=O)c2ccc(-n3cccn3)nc2)C[C@@H]1c1ccc(Cl)c(Cl)c1 (racemic) [Example 30, {(3SR,4RS)-3-(3,4-Dichloro-phenyl)-4-[(3-fluoro-4-trifluoromethyl-benzyl)-methyl-amino]-pyrrolidin-1-yl}-(6-pyrazol-1-yl-pyridin-3-yl)-methanone]",2.8 nM
16,"Cc1cc(C(=O)N2C[C@H](c3ccc(Cl)c(Cl)c3)[C@@H](N(C)Cc3ccc(C(F)(F)F)c(F)c3)C2)ccn1 (racemic) [Example 33, {(3SR,4RS)-3-(3,4-Dichloro-phenyl)-4-[(3-fluoro-4-trifluoromethyl-benzyl)-methyl-amino]-pyrrolidin-1-yl}-(2-methyl-pyridin-4-yl)-methanone]",11.1 nM
17,"CN(Cc1ccc(C(F)(F)F)c(F)c1)[C@H]1CN(C(=O)c2ccc(N3CCOCC3)cc2)C[C@@H]1c1ccc(Cl)c(Cl)c1 (racemic) [Example 38, {(3SR,4RS)-3-(3,4-Dichloro-phenyl)-4-[(3-fluoro-4-trifluoromethyl-benzyl)-methyl-amino]-pyrrolidin-1-yl}-(4-morpholin-4-yl-phenyl)-methanone]",9 nM
18,"CN(Cc1ccc(C(F)(F)F)c(F)c1)[C@H]1CN(C(=O)c2ccc(-n3cncn3)cc2)C[C@@H]1c1ccc(Cl)c(Cl)c1 (racemic) [Example 40, {(3SR,4RS)-3-(3,4-Dichloro-phenyl)-4-[(3-fluoro-4-trifluoromethyl-benzyl)-methyl-amino]-pyrrolidin-1-yl}-(4-[1,2,4]triazol-1-yl-phenyl)-methanone]",2.7 nM
19,"CN(Cc1ccc(C(F)(F)F)c(F)c1)[C@H]1CN(C(=O)c2ccc(-n3ccnc3)cc2)C[C@@H]1c1ccc(Cl)c(Cl)c1 (racemic) [Example 41, {(3SR,4RS)-3-(3,4-Dichloro-phenyl)-4-[(3-fluoro-4-trifluoromethyl-benzyl)-methyl-amino]-pyrrolidin-1-yl}-(4-imidazol-1-yl-phenyl)-methanone]",10.7 nM

# Reference: patent US8293770B2, “Pyrrolidine derivatives as NK-3 receptor antagonists” (Hoffmann-La Roche Inc., priority 2008, dated 2012)
